For 36 molecules, Emax and EC50 results are on record in patent US20260200926A1, “TREM2 MODULATORS” (Muna Therapeutics ApS, priority 2022, published 2026).

This assay addresses T1, Human TREM2 (Homo sapiens, UniProt Q9NZC2).
T1 construct: expressed in transfected cells
The assay can be described thus: Human TREM2 activity: cellular phosphorylation of Syk (AlphaLISA SureFire Ultra p-SYK) in HEK293/DAP12+TREM2 stable cell line. The settings on record: for Emax: HEK293, read-out: Emax; for EC50: phospho-Syk AlphaLISA signal, HEK293/DAP12+TREM2 cells, concentration giving 50% of maximal response, read-out: EC50. Format: cell-based. The procedure, abridged:
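The read-out was p-Syk (Tyr525/526), measured by AlphaLISA in lysates of a stable HEK293/DAP12+TREM2 clone. Cells (10,000/well, plated the day before) received compound for 30 min at 37 °C. Dosing used 8 points in quadruplicate, top 100 μM with 1:6 dilution, 0.5% final DMSO.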
(In general: In Alpha technology, singlet oxygen from a donor bead excites a nearby acceptor bead.)

The mark [1] stands for this setting: maximal response relative to reference agonist example 1B (remaining examples).

Read-outs that look alike come from different tables or passages of the source.

T1 sequence (Q9NZC2 19-230): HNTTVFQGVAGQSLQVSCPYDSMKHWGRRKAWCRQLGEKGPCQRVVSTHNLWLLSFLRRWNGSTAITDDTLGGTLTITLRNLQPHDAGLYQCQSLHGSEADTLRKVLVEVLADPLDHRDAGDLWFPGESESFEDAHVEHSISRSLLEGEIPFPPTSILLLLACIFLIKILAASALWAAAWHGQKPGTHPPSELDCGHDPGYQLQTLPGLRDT
T1 sequence (O43914 22-113 partner): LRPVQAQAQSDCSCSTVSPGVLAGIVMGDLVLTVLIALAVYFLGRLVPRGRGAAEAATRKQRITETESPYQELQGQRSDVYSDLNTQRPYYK

The Emax is the greatest response seen or fitted, relative to the assay's reference. The term EC50 denotes the concentration needed to bring the measured effect to its halfway point. With `Cc1nc2c(-c3ccc(Cl)cc3F)cc(N3C[C@@H](c4cnn(C)c4)OC(C)(C)C3)cc2c(=O)n1C` (single isomer, unassigned) [Example 117A], the half-maximal effective concentration (EC50) lay in the range of 0.01 to 0.1 µM. Moreover, the Emax under setting [1] was in the range of 75 to 110%.
The matching figures for `Cc1cc([C@H]2CN(c3cc4c(=O)n(C)c(C)nc4c(-c4ccc(C(F)(F)F)cc4F)n3)CCO2)ccn1` (single isomer, unassigned) [Example 137B]: 0.1 to 1 µM and 75 to 110%.
As to `Cc1nc2c(-c3ccc(C(F)(F)F)cc3F)nc(N3C[C@@H](c4cnn(C)c4)OC(C)(C)C3)nc2c(=O)n1C` (single isomer, unassigned) [Example 100A], the EC50 is 0.01 to 0.1 µM. Also, the Emax under setting [1] lay in the range of 75 to 110%.
`Cc1cc([C@@H]2CN(c3cc4c(=O)n(C)c(C)nc4c(-c4ccc(C(F)(F)F)cc4F)n3)CCO2)ccn1` (single isomer, unassigned) [Example 137A]: the EC50 lay in the range of 0.001 to 0.01 µM. Under setting [1], the Emax lay within 75 to 110%.
For `Cc1nc2c(-c3ccc(Cl)cc3F)nc(N3CCOC(c4nccs4)C3)nc2c(=O)n1C` (stereo not drawn) [Example 48, 8-(4-chloro-2-fluorophenyl)-2,3-dimethyl-6-(2-(thiazol-2-yl)morpholino)pyrimido[5,4-d]pyrimidin-4(3H)-one], in that order: 0.01 to 0.1 µM and below 75%.
With `Cc1cc([C@@H]2CN(c3cc4c(=O)n(C)c(C)nc4c(-c4ccc(C(F)(F)F)nc4)n3)CCO2)ccn1` (single isomer, unassigned) [Example 138A], the EC50 is 0.01 to 0.1 µM. In addition, under setting [1], the Emax was above 110%.
The matching figures for `Cc1nc2c(-c3ccc(Cl)cc3F)nc(N3CCN(CC(F)F)C(c4cnn(C)c4)C3)nc2c(=O)n1C` (stereo not drawn) [Example 32, 8-(4-chloro-2-fluorophenyl)-6-(4-(2,2-difluoroethyl)-3-(1-methyl-1H-pyrazol-4-yl)piperazin-1-yl)-2,3-dimethylpyrimido[5,4-d]pyrimidin-4(3H)-one]: 0.01 to 0.1 µM and below 75%.
The matching figures for `Cc1cc([C@@H]2CN(c3cc4c(=O)n(C)c(C)nc4c(-c4ccc(F)cc4F)n3)CC(C)(C)O2)ccn1` (single isomer, unassigned) [Example 159A]: 0.001 to 0.01 µM and 75 to 110%.
For `Cc1cc([C@H]2CN(c3nc(-c4ccc(F)cc4F)c4nc(C)n(C)c(=O)c4n3)CC(C)(C)O2)ccn1` (single isomer, unassigned) [Example 170B], in that order: 0.001 to 0.01 µM and 75 to 110%.
In the case of `Cc1nc2c(-c3cc(F)c(F)cc3F)nc([C@@H]3CCO[C@H](c4cnn(C5CC5)c4)C3)cc2c(=O)n1C` (single isomer, unassigned) [Example 139A], the EC50 lay in the range of 0.01 to 0.1 µM. For the same molecule, the Emax under setting [1] lay within 75 to 110%.
Regarding `Cc1nc2c(-c3ccc(C(F)(F)F)nc3)nc([C@H]3CCO[C@@H](c4cnn(C5CC5)c4)C3)nc2c(=O)n1C` (single isomer, unassigned) [Example 98B], the EC50 was above 1 µM. For the same molecule, under setting [1], the Emax was below 75%.
Regarding `Cc1cc([C@H]2CN(c3cc4c(=O)n(C)c(C)nc4c(-c4ccc(C(F)(F)F)nc4)n3)CCO2)ccn1` (single isomer, unassigned) [Example 138B], the EC50 is 0.1 to 1 µM. Also, the Emax under setting [1] is below 75%.
For `Cc1cc([C@@H]2CN(c3nc(-c4ccc(F)cc4F)c4nc(C)n(C)c(=O)c4n3)CC(C)(C)O2)ccn1` (single isomer, unassigned) [Example 170A], in that order: 0.1 to 1 µM and below 75%.
With `Cc1cc([C@H]2CN(c3nc(-c4ccc(F)cc4F)c4nc(C(F)(F)F)n(C)c(=O)c4c3F)CCO2)ccn1` (single isomer, unassigned) [Example 174B], the EC50 is 0.1 to 1 µM. Besides, under setting [1], the Emax is below 75%.
For the molecule `Cc1nc2c(-c3ccc(Cl)cc3F)nc(N3CC[C@@H](Oc4cnn(C)c4)C3)nc2c(=O)n1C` [Example 64, (R)-8-(4-chloro-2-fluorophenyl)-2,3-dimethyl-6-(3-((1-methyl-1H-pyrazol-4-yl)oxy)pyrrolidin-1-yl)pyrimido[5,4-d]pyrimidin-4 (3H)-one], the EC50 lay within 0.01 to 0.1 µM. In addition, the Emax under setting [1] was below 75%.
For `Cc1cc([C@H]2CN(c3nc(-c4ccc(C(F)(F)F)nc4)c4nc(C)n(C)c(=O)c4n3)CC(C)(C)O2)ccn1` (single isomer, unassigned) [Example 164B], in that order: 0.001 to 0.01 µM and below 75%.
The matching figures for `Cc1nc2c(-c3cc(F)c(F)cc3F)nc(N3CCO[C@@H](c4cnn(C5CC5)c4)C3)cc2c(=O)n1C` (single isomer, unassigned) [Example 133B]: 0.1 to 1 µM and below 75%.
Regarding `Cc1nc2c(-c3ccc(F)cc3C#N)nc(N3C[C@@H](C)O[C@@H](c4cnn(C5CC5)c4)C3)cc2c(=O)n1C` (single isomer, unassigned) [Example 201B], the EC50 was above 1 µM. The Emax under setting [1] was below 75%.
The matching figures for `COCCN1CCN(c2nc(-c3ccc(Cl)cc3F)c3nc(C)n(C)c(=O)c3n2)CC1c1cnn(C)c1` (stereo not drawn) [Example 34, 8-(4-chloro-2-fluorophenyl)-6-(4-(2-methoxyethyl)-3-(1-methyl-1H-pyrazol-4-yl)piperazin-1-yl)-2,3-dimethylpyrimido[5,4-d]pyrimidin-4(3H)-one]: 0.1 to 1 µM and below 75%.
In the case of `Cc1cc([C@@H]2CN(c3cc4c(=O)n(C)c(C)nc4c(-c4ccc(C(F)F)nc4)n3)CC(F)(F)O2)ccn1` (single isomer, unassigned) [Example 181A], the EC50 fell in the range of 0.01 to 0.1 µM. Further, under setting [1], the Emax was below 75%.
The matching figures for `Cc1nc2c(-c3ccc(Cl)cc3F)nc([C@H]3CCO[C@@H](c4cnn(C5CC5)c4)C3)nc2c(=O)n1C` (single isomer, unassigned) [Example 24B]: 0.1 to 1 µM and below 75%.
The matching figures for `Cc1cc([C@@H]2CN(c3cc4c(=O)n(C)c(C)nc4c(-c4ccc(C(F)(F)F)nc4)n3)C[C@H](C)O2)ccn1` (single isomer, unassigned) [Example 199A]: 0.01 to 0.1 µM and below 75%.
For `Cc1nc2c(-c3ccc(C(F)(F)F)cc3F)nc(N3CCO[C@@H](c4cnn(C)c4)C3)cc2c(=O)n1C` (single isomer, unassigned) [Example 126A], in that order: 0.001 to 0.01 µM and 75 to 110%.
Take `Cc1nc2c(-c3ccc(Cl)cc3F)nc(N3CCO[C@H](c4cnn(C)c4)C3)nc2c(=O)n1C` (single isomer, unassigned) [Example 1A]: the EC50 was 0.1 to 1 µM. For the same molecule, the Emax (maximal response relative to reference agonist human TREM2 MAB1828 (examples 1, 1A and 1B)) lay within 75 to 110%.
With `Cc1nc2c(-c3ccc(C(F)(F)F)nc3)nc(N3CCO[C@@H](c4cnn(C)c4)C3)nc2c(=O)n1C` (single isomer, unassigned) [Example 28B], the EC50 was in the range of 0.01 to 0.1 µM. Moreover, the Emax under setting [1] was 75 to 110%.
For `Cc1nc2c(-c3ccc(F)c(F)c3)nc(N3CCOC(c4cnn(C)c4)C3)nc2c(=O)n1C` (stereo not drawn) [Example 9, 8-(3,4-difluorophenyl)-2,3-dimethyl-6-(2-(1-methyl-1H-pyrazol-4-yl)morpholino)pyrimido[5,4-d]pyrimidin-4(3H)-one], in that order: 0.1 to 1 µM and below 75%.
For `Cc1nc2c(-c3ccc(C(F)(F)F)cc3C#N)nc(N3C[C@@H](C)O[C@@H](c4cnn(C5CC5)c4)C3)cc2c(=O)n1C` (single isomer, unassigned) [Example 202B], in that order: above 1 µM and below 75%.
The matching figures for `Cc1nc2c(-c3ccc(F)cc3F)nc(N3C[C@@H](C)O[C@@H](c4cnn(C5CC5)c4)C3)cc2c(=O)n1C` (single isomer, unassigned) [Example 190B]: 0.1 to 1 µM and below 75%.
Consider `Cc1nc2c(-c3ccc(F)cc3F)nc(N3CCO[C@H](c4cnn(C)c4)C3)cc2c(=O)n1C` (single isomer, unassigned) [Example 129B], for which the EC50 was 0.01 to 0.1 µM. For the same molecule, under setting [1], the Emax is below 75%.
`Cc1cc([C@H]2CN(c3cc4c(=O)n(C)c(C)nc4c(-c4ccc(Cl)cc4F)n3)CC(C)(C)O2)ccn1` (single isomer, unassigned) [Example 172B]: the EC50 was 0.001 to 0.01 µM. For the same molecule, under setting [1], the Emax is 75 to 110%.
The matching figures for `Cc1nc2c(-c3ccc(Cl)cc3F)nc(N3C[C@H](c4cnn(C)c4)OC4(CCC4)C3)nc2c(=O)n1C` (single isomer, unassigned) [Example 109B]: 0.1 to 1 µM and below 75%.
For `Cc1cc([C@H]2CN(c3cc4c(=O)n(C)c(C)nc4c(-c4cc(F)c(F)cc4F)n3)CCO2)ccn1` (single isomer, unassigned) [Example 141B], in that order: 0.01 to 0.1 µM and 75 to 110%.
The matching figures for `Cc1nc2c(-c3ccc(C(F)(F)F)nc3)nc([C@@H]3CCO[C@H](c4cnn(C)c4)C3)nc2c(=O)n1C` (single isomer, unassigned) [Example 88A]: above 1 µM and below 75%.
With `Cc1nc2c(-c3ccc(Cl)cc3F)nc(N3CCOC4(CCN(C)CC4)C3)nc2c(=O)n1C` [Example 56, 8-(4-chloro-2-fluorophenyl)-2,3-dimethyl-6-(9-methyl-1-oxa-4,9-diazaspiro[5.5]undecan-4-yl)pyrimido[5,4-d]pyrimidin-4(3H)-one], the EC50 was above 1 µM. In addition, the Emax under setting [1] is below 75%.
For `Cn1c(C(F)(F)F)nc2c(-c3ccc(F)cc3F)nc([C@@H]3CCO[C@H](c4cnn(C5CC5)c4)C3)cc2c1=O` (single isomer, unassigned) [Example 197A], in that order: 0.01 to 0.1 µM and below 75%.
Regarding `Cc1nc2c(-c3ccc(C(F)(F)F)nc3)nc(N3C[C@@H](c4cnn(C)c4)OC(C)(C)C3)nc2c(=O)n1C` (single isomer, unassigned) [Example 102A], the EC50 lay within 0.01 to 0.1 µM. Moreover, the Emax under setting [1] was in the range of 75 to 110%.
